Where a SMILES comes first, the peptide text is derived from it. [ ]: non-standard residue; d: D form. The star is where a group is joined. X1 = CC(C)C[C@@H](C[N+]1=C2CCCN2CCC1)N*; dIva = CC[C@@](C)(N)C(=O)O; Pip = O=C(O)[C@@H]1CCCCN1; Aib = CC(C)(N)C(=O)O; βAla = NCCC(=O)O
Columns and labels:
[1] = system: multi-drug-resistant P. falciparum line Dd2; format: cell-based, Plasmodium falciparum
P. falciparum = details: read-out: EC50 against P. falciparum; cited from earlier work

SMILES | antiplasmodial activity in words [1] | EC50 (P. falciparum)
CC[C@@](C)(NC(=O)[C@H](CC(C)C)NC(=O)[C@H](C)NC(=O)C(C)(C)NC(=O)[C@@H]1CCCCN1C(=O)C(C)(C)NC(=O)C(C)(C)NC(=O)CNC(=O)CCNC(=O)[C@H](CC(C)C)NC(=O)C(C)(C)NC(=O)C(C)(C)NC(=O)[C@@H]1CCCCN1C(=O)C(C)(C)NC(=O)[C@@H]1CCCCN1C(C)=O)C(=O)N[C@@H](CC(C)C)C[N+]1=C2CCCN2CCC1 [efrapeptin F (53), efrapeptin F] (Ac-[Pip][Aib][Pip][Aib][Aib]L[βAla]G[Aib][Aib][Pip][Aib]AL[dIva]-X1; N-terminus and C-terminus assumed) | submicromolar | 
CC[C@H](C)[C@@H](C(=O)O[C@@H](CC(C)C)C(=O)N[C@@H](CC(C)C)C(=O)N[C@@H](C)/C=C/C(=O)N1C(=O)C=C(OC)[C@@H]1C)N(C)C [Gallinamide A] |  | 8.4 µM

From publication PMC7941592 (Journal of natural products, 2021)
